Results on one molecule are retold here after article PMC9974481, “Structure of SpoT reveals evolutionary tuning of catalysis via conformational constraint” (Nature Chemical Biology, 2022).

Assay [1] deals with T1, SpoTAb (full-length A. baumannii SpoT) (Acinetobacter baumannii, UniProt A0A0D5YCY1).
T1 construct: gene ABUW_0309; full-length, domains HD, pseudo-SYNTH, Core, TGS, HEL, ZFD, RRM; pET28b His-TEV tag cleaved, E. coli BL21(DE3); monomer, theoretical 80 kDa; locus tag belongs to AB5075, expression gene amplified from AB19606; PDB entries not assigned in text (one is the metal-free NTD)
Description: X-ray crystallography, […] Å. Type of assay: binding. Conditions: crystal soaked with 20 mM ppGpp at 4 °C; Mn2+ in hydrolase active site; PDB entry is 7QPR or 7QPS, not assigned in text.

Assay [2] deals with T1, SpoTAb (full-length A. baumannii SpoT). Briefly: 3H-ppGpp hydrolysis, TLC and scintillation counting. The class given is biochemical. The settings on record: 1 mM MnCl2, 5 mM Mg2+, HEPES:Polymix pH 7.5, 37 °C, 10-600 μM substrate; labelled compound.

On to `Nc1nc2c(ncn2[C@@H]2O[C@H](COP(=O)(O)OP(=O)(O)O)[C@@H](OP(=O)(O)OP(=O)(O)O)[C@H]2O)c(=O)[nH]1` [ppGpp], for which the “X-ray crystallography, 2.5 Å” value in assay [1] is reported as “X-ray structure of full-length catalytically active SpoTAb bound to ppGpp”. Besides, the KM result in assay [2] was “SpoTAb Michaelis constant (KM) and maximum reaction velocity (Vmax) of ^3H-ppGpp hydrolysis were determined”.
